Measurements: patent US12708673B2, “Methods and compositions related to peptides and proteins with c-terminal elements” (Sanford Burnham Prebys Medical Discovery Institute, priority 2008, dated 2026)
Entries after “also recorded” stand apart in the source; their conditions may differ.

Key:
cells = experiment: Cell internalization of iRGD compared with other RGD peptides; assay type: cell-based
pancreatic tumors = experiment: Tumor homing of intravenously injected fluorescamine-labeled iRGD peptide in PDAC mouse; assay type: in vivo; details: intravenous, 4.5 hrs circulation
Protocol: Approximately 200 μg of fluorescamine-labeled iRGD peptide was injected into a pancreatic ductal adenocarcinoma (PDAC) mouse through the tail vein, and was allowed to circulate for 4.5 hrs. The organs were harvested and observed under UV light (upper panel). […] T7 phage displaying iRGD peptides (main panel) or CG7C control peptides (right upper window) were incubated with PPC1 cells cultured on collagen-I coated cover slips for 2 hours at 37° C., stained with anti T7 antibody and a plasma membrane marker, and imaged by a confocal microscope.

[1] = system: spontaneous pancreatic ductal adenocarcinoma; experiment: Spreading of intravenously injected phage into tumor tissue of transgenic mice bearing pancreatic ductal adenocarcinoma; assay type: in vivo, mouse; details: 15 min circulation
Excerpt: The mice were than perfused with PBS containing 1% BSA, and the tumors were harvested. Cryosections of the tumors were stained with an anti-T7 phage antibody, an anti CD31 antibody, and DAPI. […] Staining is denoted by the bright coloring in both panels of FIG. 9.

PPC-1 cells [2] = experiment: T7 phage internalization into PPC-1 (PPC1) cells at 37° C. (acid wash and titration, or anti-T7 staining and confocal imaging); assay type: cell-based, human
Protocol: (§1) FIG. 2A: Binding of T7 phage to prostate cancer cells depends on the display of a C-terminal arginine on the phage particles. PPC1 cells were incubated with T7 bacteriophage displaying derivatives of the G7 (upper graph) or RPARPAR peptide (SEQ ID NO: 2) (lower graph) at 4° C., and the bound phage was quantified by plaque assay. Binding is expressed in fold over of the non-binding G7 control phage. FIG. 2B: Phage displaying C-terminal arginine is internalized into cultured PPC1 cells (arrow, nuclear internalization; arrowhead, cytoplasmic internalization). A panel of T7 phage clones were incubated at 37° C. with PPC1 cells grown on collagen-coated coverslips, stained with anti T7 antibody and imaged by confocal microscopy.
(§2) Phage display. For in vivo phage display, mice were injected intravenously with 10^10 plaque-forming units (pfu) of T7 phage followed by perfusion of the circulatory system and determination of the bound phage in target organs by titration. For cell binding studies on cultured cells (in vitro display) and organ-derived cell suspensions (ex vivo display), the cells were incubated with 10^9 pfu of phage at 4° C., washed, lysed, and quantified by titration. Incubation at 37° C. followed by low pH wash (glycine-HCl, pH 2.5) was used to assess the amount of internalized phage.
(§3) For biopanning and phage binding studies (Hoffman, J. A. et al., 2004), cultured cells were grown to confluence and harvested with trypsin and mouse organs were dissociated using Medimachine (BD Biosciences, San Jose, CA). To measure phage binding, 10^6 cells in binding buffer (DMEM containing 1% BSA) were incubated with 10^9 pfu/ml of T7 phage for 1 hour at 4° C. The cells were washed 4 times with the binding buffer, lysed in LB bacterial growth medium containing 1% NP-40, and titrated. Phage internalization assays used the same procedure, except that the cells were incubated with the phage at 37° C., and that an acidic buffer (500 mM sodium chloride, 0.1 M glycine, 1% BSA, pH 2.5) was used instead of binding buffer in the second wash.
(§4) Centrifugation on a silicone oil cushion (1.03 g/ml) was used to separate unbound phage from cells during time course experiments. Inhibitors of phage binding and internalization (heparin, chondroitin, glycocalyx removal enzymes, endocytosis inhibitors, free peptides, quantum dots and UV-inactivated phage) were added to the cells 20 minutes prior to incubation with phage. Endocytosis inhibitors used in this study were the following: nystatin (50 μg/ml), genistein (100 μg/ml), chlorpromazine (5 μg/ml), 5-(N-ethyl-N-isopropyl) amiloride (100 μM), wortmannin (10 μM).
Immunofluorescence staining. Cultured cells (2×10^5 cells) were grown in 6-well tissue culture plates on collagen-I coated coverslips (BD Biosciences, San Jose, CA) overnight at 37° C. in 5% CO2, and incubated with 10^8 pfu of T7 phage. The cells were fixed in 4% paraformaldehyde or cold (−20° C.) methanol, and stained with antibodies. Nuclei were stained with DAPI or […]. A polyclonal rabbit anti-T7 antibody was generated in-house as described previously (Laakkonen, P. et al. 2002b), except that an additional phage purification step using […] centrifugation was included. Other primary antibodies used were rat anti-mouse CD31 monoclonal antibody (BD Biosciences), rabbit anti-NRP-1, mouse anti-human Lamp-1, mouse anti-human caveolin (Millipore, Temecula, CA), mouse anti-NRP-1 (Miltenyi Biotec Inc., Auburn, CA), mouse anti-human EEA-1 (BD Biosciences, San Jose, CA). The secondary antibodies, Alexa594 goat antibodies to mouse, rat, and rabbit immunoglobulins and Alexa488 donkey anti-rabbit antibody were from Invitrogen (Carlsbad, CA). Cells and tissue sections were examined by confocal microscopy (Fluoview 500, Olympus America Inc., Center Valley, PA).

NRP-1 = molecular target: T1, NRP-1 (Homo sapiens, UniProt O14786); experiment: Affinity chromatography of PPC-1 tumor extract on immobilized RPARPAR peptide; assay type: binding; details: 130 kDa protein, MALDI-TOF
T1 construct: from tissue; host or cells: orthotopic PPC-1 prostate tumor xenografts grown in BALB/c nude mice, extracted with n-octyl-beta-D-glucopyranoside
T1 sequence (O14786 22-923): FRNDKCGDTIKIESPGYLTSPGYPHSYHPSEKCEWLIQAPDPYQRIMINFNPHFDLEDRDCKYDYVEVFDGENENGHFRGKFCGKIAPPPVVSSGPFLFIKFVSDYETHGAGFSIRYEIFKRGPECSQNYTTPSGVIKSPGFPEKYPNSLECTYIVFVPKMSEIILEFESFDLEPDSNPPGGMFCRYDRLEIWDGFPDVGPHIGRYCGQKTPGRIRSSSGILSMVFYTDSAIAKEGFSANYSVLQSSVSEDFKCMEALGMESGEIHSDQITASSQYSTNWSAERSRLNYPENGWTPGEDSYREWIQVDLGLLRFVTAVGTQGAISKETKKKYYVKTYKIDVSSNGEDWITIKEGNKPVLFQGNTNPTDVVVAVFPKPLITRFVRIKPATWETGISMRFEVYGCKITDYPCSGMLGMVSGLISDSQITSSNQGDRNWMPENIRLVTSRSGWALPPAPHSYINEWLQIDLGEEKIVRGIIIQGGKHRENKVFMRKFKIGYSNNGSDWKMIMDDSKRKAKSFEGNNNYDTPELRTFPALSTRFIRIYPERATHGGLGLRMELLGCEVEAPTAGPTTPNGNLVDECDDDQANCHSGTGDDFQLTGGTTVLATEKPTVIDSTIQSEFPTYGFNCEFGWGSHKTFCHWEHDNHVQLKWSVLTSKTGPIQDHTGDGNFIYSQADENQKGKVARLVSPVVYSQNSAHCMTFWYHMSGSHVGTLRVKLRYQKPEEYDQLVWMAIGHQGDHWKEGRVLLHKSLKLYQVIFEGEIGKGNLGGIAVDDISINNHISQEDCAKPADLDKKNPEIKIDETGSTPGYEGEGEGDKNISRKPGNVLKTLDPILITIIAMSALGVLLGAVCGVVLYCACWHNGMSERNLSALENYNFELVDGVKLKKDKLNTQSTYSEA
Protocol: (§5) FIGS. 18A-18C show the identification and validation of NRP-1 as the CendR receptor. FIG. 18A: Affinity chromatography of proteins interacting with RPARPAR (SEQ ID NO: 2) peptide. PPC-1 tumor tissue was extracted with a 200 mM glucopyranoside buffer, and the extract was incubated with RPARPAR-coated (SEQ ID NO:2) beads, followed by extensive washes, and elution with 2 mM free RPARPAR (SEQ ID NO:2) peptide. Note appearance of a 130 kDa band, identified by mass spectroscopy as NRP-1, starting in the fraction 3 of the eluate. Upper panel—a silver stained gel, lower panel—an immunoblot with anti-NRP-1 antibody. FIG. 18B: Binding of RPARPAR (SEQ ID NO:2) phage to M21 melanoma cells transiently transfected with wild-type NRP-1 (NRP-1), triple mutant NS346A-E348A-T349A NRP-1 (Mutant NRP-1), or parental pcDNA3.1plasmid (Vector), and to non-transfected M21 cells. FIG. 18C: (c, d), Confocal immunofluorescence images of NRP-1 and RPARPAR (SEQ ID NO:2) T7 phage in PPC-1 cells incubated with phage at 37° C. for 40 minutes (c) and 3 hours (d). The phage and NRP-1 co-localize extensively, but there appears to be a progressive decrease in the overlap (arrowheads in c and d) and appearance of structures positive for the phage only (arrows, d). (e) Immunostaining and confocal imaging of RPARPAR (SEQ ID NO:2) phage and NRP-1 in M21 cells transiently transfected with NRP-1. […]

wild-type NRP-1 = molecular target: T2, wild-type NRP-1 (Homo sapiens, UniProt O14786); experiment: Phage binding and internalization in M21 melanoma cells transiently transfected with wild-type NRP-1; assay type: cell-based
T2 construct: expressed in transfected cells; host or cells: M21 melanoma cells, transient transfection with lipofectamine; pcDNA3.1(+) construct, gift of Dr. Michael Klagsbrun
T2 sequence (O14786 22-923): as above
Protocol: as §5

PPC-1 cells [3] = experiment: T7 phage binding to PPC-1 (PPC1) cells at 4° C., quantified by titration/plaque assay; assay type: cell-based, human
Protocol: as §1, §2, §3, §4

PPC-1 cells [4] = experiment: Protease treatment of phage followed by phage binding assay on PPC-1 cells at 4° C.; assay type: cell-based, human
Protocol: 5×10^8 phage particles were incubated with indicated volumes of 2.5% trypsin at 37° C. for 20 min, followed by incubation of the phage with 1×10^6 PPC1 cells at 4° C. for 3 hours. Binding is expressed as fold over non-binding G7 control phage (the internalization of which was not affected by the trypsin treatment).
10^9 pfu of RPARPARA (SEQ ID NO:3) phage was treated with indicated amounts of trypsin at 37° C. followed by phage binding assay at 4° C. The data are representative of 4 independent binding experiments.
FIGS. 20A-20C show urokinase dependent CendR peptide. FIG. 20A: The design of a uPA-activatable CendR peptide (uCendR). […] Statistical analysis was performed with ANOVA (b); n=3; error bars indicate s.d.; triple asterisk, p<0.001. Scale bars: 20 μm.
as §3
Protease treatment of phage and qdots. 10^9 phage particles or 50 μl of peptide-coated qdots phage were treated with 50 iu of uPA, 25 μg of crystalline trypsin, 50 iu of thrombin, or 25 μg of collagenase type I (all Sigma, St. Louis, Mo).

CRGDKGPDC [iRGD peptide]
Internalization into cells relative to other RGD peptides (cells): more strongly internalized into cells than any other RGD peptide | Tumor homing (pancreatic tumors): strong tumor homing; also recorded: homes to pancreatic tumors

CRGDKGPDC [iRGD phage]
Distribution of phage in pancreatic tumor tissue [1]: extensively taken up by the tumor cells forming the pancreatic tumor ducts | Phage internalization into PPC-1 cells (in words) (PPC-1 cells [2]; 37° C.): internalizes extensively into the tumor cells

RPARPAR (REAGENT) [RPARPAR peptide]
Protein released from immobilized peptide by elution with free RPARPAR peptide (NRP-1): NRP-1 | Effect of unlabelled peptide in binding buffer on binding and internalization of VEGF-C7, enhanced tuftsin and A7R phage (PPC-1 cells [2]): reduced

RPARPARA [RPARPARA phage]
Phage binding and internalization by M21 cells with forced expression of NRP-1 (wild-type NRP-1): is not internalized | Phage binding to PPC-1 cells (in words) (PPC-1 cells [3]; 4° C.): abolished the binding | Cell binding, fold over G7-displaying phage (PPC-1 cells [3]; PPC1 cells, without trypsin treatment): 2.8 fold | Increase of phage binding to cells by trypsin treatment of the phage (PPC-1 cells [4]; phage incubated with trypsin at 37° C., binding at 4° C.): more than 100 fold | Effect of trypsin treatment of phage on binding (in words) (PPC-1 cells [4]; trypsin): restored
